# From PubChem BioAssay (NCI)
#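 Cultured in 96-well plates, cells were exposed to test compound for 48 hours across five concentrations. GI50 marks 50% less growth. TGI denotes the concentration required for complete inhibition of growth.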
# What was measured:
# Test in all cases: inhibition of tumour cell growth, NCI panel, 48 h
# HOP-92 NSCLC = system: HOP-92 NSCLC
# M14 melanoma = system: M14 melanoma
# SNB-19 CNS = system: SNB-19 CNS
# SK-MEL-5 melanoma = system: SK-MEL-5 melanoma
# KM12 colon = system: KM12 colon
# SW-620 colon = system: SW-620 colon
# U251 CNS = system: U251 CNS
# K-562 leukemia = system: K-562 leukemia
# UO-31 renal = system: UO-31 renal
# LOX IMVI melanoma = system: LOX IMVI melanoma
# MDA-MB-231 breast = system: MDA-MB-231 breast
# SNB-75 CNS = system: SNB-75 CNS
# NCI/ADR-RES ovarian = system: NCI/ADR-RES ovarian
# HL-60(TB) leukemia = system: HL-60(TB) leukemia
# CCRF-CEM leukemia = system: CCRF-CEM leukemia
# OVCAR-4 ovarian = system: OVCAR-4 ovarian
# CAKI-1 renal = system: CAKI-1 renal
# OVCAR-3 ovarian = system: OVCAR-3 ovarian
# OVCAR-8 ovarian = system: OVCAR-8 ovarian
# MALME-3M melanoma = system: MALME-3M melanoma
# 786-0 renal = system: 786-0 renal
# SF-539 CNS = system: SF-539 CNS
# UACC-62 melanoma = system: UACC-62 melanoma
# SK-MEL-2 melanoma = system: SK-MEL-2 melanoma
# NCI-H23 lung = system: NCI-H23 lung
# SK-OV-3 ovarian = system: SK-OV-3 ovarian
# TK-10 renal = system: TK-10 renal
# HS 578T breast = system: HS 578T breast
# IGROV1 ovarian = system: IGROV1 ovarian
# HOP-62 NSCLC = system: HOP-62 NSCLC
# SF-268 CNS = system: SF-268 CNS
# RXF 393 renal = system: RXF 393 renal
# PC-3 prostate = system: PC-3 prostate
# NCI-H522 lung = system: NCI-H522 lung
# SF-295 CNS = system: SF-295 CNS
# EKVX NSCLC = system: EKVX NSCLC
# MOLT-4 leukemia = system: MOLT-4 leukemia
# BT-549 breast = system: BT-549 breast
# NCI-H226 lung = system: NCI-H226 lung
# A549 NSCLC = system: A549 NSCLC
# HCC-2998 colon = system: HCC-2998 colon
# NCI-H460 lung = system: NCI-H460 lung
# RPMI-8226 leukemia = system: RPMI-8226 leukemia
# T-47D breast = system: T-47D breast
# A498 renal = system: A498 renal
# UACC-257 melanoma = system: UACC-257 melanoma
# HCT-116 colon = system: HCT-116 colon
# SK-MEL-28 melanoma = system: SK-MEL-28 melanoma
# SR leukemia = system: SR leukemia
# OVCAR-5 ovarian = system: OVCAR-5 ovarian
# MDA-MB-435 = system: MDA-MB-435
# ACHN renal = system: ACHN renal
# MCF7 breast = system: MCF7 breast
# SN12C renal = system: SN12C renal
# DU-145 prostate = system: DU-145 prostate
# COLO 205 colon = system: COLO 205 colon
# HCT-15 colon = system: HCT-15 colon
# HT29 colon = system: HT29 colon
structure (smiles),measurement,setting,value
COc1cc(C)[nH]c(=O)c1CN1CCc2c(Cl)cc([C@H](OC)C3COC3)c(Cl)c2C1=O,GI50,HOP-92 NSCLC,> 100 µM
same,TGI,HOP-92 NSCLC,> 100 µM
same,GI50,M14 melanoma,> 100 µM
same,TGI,M14 melanoma,> 100 µM
same,GI50,SNB-19 CNS,> 100 µM
same,TGI,SNB-19 CNS,> 100 µM
same,GI50,SK-MEL-5 melanoma,> 100 µM
same,TGI,SK-MEL-5 melanoma,> 100 µM
same,GI50,KM12 colon,> 100 µM
same,TGI,KM12 colon,> 100 µM
same,GI50,SW-620 colon,> 100 µM
same,TGI,SW-620 colon,> 100 µM
same,GI50,U251 CNS,> 100 µM
same,TGI,U251 CNS,> 100 µM
same,GI50,K-562 leukemia,> 100 µM
same,TGI,K-562 leukemia,> 100 µM
same,GI50,UO-31 renal,> 100 µM
same,TGI,UO-31 renal,> 100 µM
same,GI50,LOX IMVI melanoma,> 100 µM
same,TGI,LOX IMVI melanoma,> 100 µM
same,GI50,MDA-MB-231 breast,> 100 µM
same,TGI,MDA-MB-231 breast,> 100 µM
same,GI50,SNB-75 CNS,> 100 µM
same,TGI,SNB-75 CNS,> 100 µM
same,GI50,NCI/ADR-RES ovarian,> 100 µM
same,TGI,NCI/ADR-RES ovarian,> 100 µM
same,GI50,HL-60(TB) leukemia,> 100 µM
same,TGI,HL-60(TB) leukemia,> 100 µM
same,GI50,CCRF-CEM leukemia,> 100 µM
same,TGI,CCRF-CEM leukemia,> 100 µM
same,GI50,OVCAR-4 ovarian,> 100 µM
same,TGI,OVCAR-4 ovarian,> 100 µM
same,GI50,CAKI-1 renal,> 100 µM
same,TGI,CAKI-1 renal,> 100 µM
same,GI50,OVCAR-3 ovarian,> 100 µM
same,TGI,OVCAR-3 ovarian,> 100 µM
same,GI50,OVCAR-8 ovarian,> 100 µM
same,TGI,OVCAR-8 ovarian,> 100 µM
same,GI50,MALME-3M melanoma,> 100 µM
same,TGI,MALME-3M melanoma,> 100 µM
same,GI50,786-0 renal,> 100 µM
same,TGI,786-0 renal,> 100 µM
same,GI50,SF-539 CNS,> 100 µM
same,TGI,SF-539 CNS,> 100 µM
same,GI50,UACC-62 melanoma,> 100 µM
same,TGI,UACC-62 melanoma,> 100 µM
same,GI50,SK-MEL-2 melanoma,> 100 µM
same,TGI,SK-MEL-2 melanoma,> 100 µM
same,GI50,NCI-H23 lung,> 100 µM
same,TGI,NCI-H23 lung,> 100 µM
same,GI50,SK-OV-3 ovarian,> 100 µM
same,TGI,SK-OV-3 ovarian,> 100 µM
same,GI50,TK-10 renal,> 100 µM
same,TGI,TK-10 renal,> 100 µM
same,GI50,HS 578T breast,> 100 µM
same,TGI,HS 578T breast,> 100 µM
same,GI50,IGROV1 ovarian,> 100 µM
same,TGI,IGROV1 ovarian,> 100 µM
same,GI50,HOP-62 NSCLC,> 100 µM
same,TGI,HOP-62 NSCLC,> 100 µM
same,GI50,SF-268 CNS,> 100 µM
same,TGI,SF-268 CNS,> 100 µM
same,GI50,RXF 393 renal,> 100 µM
same,TGI,RXF 393 renal,> 100 µM
same,GI50,PC-3 prostate,> 100 µM
same,TGI,PC-3 prostate,> 100 µM
same,GI50,NCI-H522 lung,> 100 µM
same,TGI,NCI-H522 lung,> 100 µM
same,GI50,SF-295 CNS,> 100 µM
same,TGI,SF-295 CNS,> 100 µM
same,GI50,EKVX NSCLC,> 100 µM
same,TGI,EKVX NSCLC,> 100 µM
same,GI50,MOLT-4 leukemia,> 100 µM
same,TGI,MOLT-4 leukemia,> 100 µM
same,GI50,BT-549 breast,> 100 µM
same,TGI,BT-549 breast,> 100 µM
same,GI50,NCI-H226 lung,> 100 µM
same,TGI,NCI-H226 lung,> 100 µM
same,GI50,A549 NSCLC,> 100 µM
same,TGI,A549 NSCLC,> 100 µM
same,GI50,HCC-2998 colon,> 100 µM
same,TGI,HCC-2998 colon,> 100 µM
same,GI50,NCI-H460 lung,> 100 µM
same,TGI,NCI-H460 lung,> 100 µM
same,GI50,RPMI-8226 leukemia,> 100 µM
same,TGI,RPMI-8226 leukemia,> 100 µM
same,GI50,T-47D breast,55.4 µM
same,TGI,T-47D breast,> 100 µM
same,GI50,A498 renal,> 100 µM
same,TGI,A498 renal,> 100 µM
same,GI50,UACC-257 melanoma,> 100 µM
same,TGI,UACC-257 melanoma,> 100 µM
same,GI50,HCT-116 colon,> 100 µM
same,TGI,HCT-116 colon,> 100 µM
same,GI50,SK-MEL-28 melanoma,> 100 µM
same,TGI,SK-MEL-28 melanoma,> 100 µM
same,GI50,SR leukemia,> 100 µM
same,TGI,SR leukemia,> 100 µM
same,GI50,OVCAR-5 ovarian,> 100 µM
same,TGI,OVCAR-5 ovarian,> 100 µM
same,GI50,MDA-MB-435,> 100 µM
same,TGI,MDA-MB-435,> 100 µM
same,GI50,ACHN renal,> 100 µM
same,TGI,ACHN renal,> 100 µM
same,GI50,MCF7 breast,> 100 µM
same,TGI,MCF7 breast,> 100 µM
same,GI50,SN12C renal,> 100 µM
same,TGI,SN12C renal,> 100 µM
same,GI50,DU-145 prostate,> 100 µM
same,TGI,DU-145 prostate,> 100 µM
same,GI50,COLO 205 colon,> 100 µM
same,TGI,COLO 205 colon,> 100 µM
same,GI50,HCT-15 colon,> 100 µM
same,TGI,HCT-15 colon,> 100 µM
same,GI50,HT29 colon,> 100 µM
same,TGI,HT29 colon,> 100 µM
